Reference: ChEMBL document CHEMBL1201862, “PubChem BioAssay data set” (2004)
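In this assay, cells in 96-well plates receive the compound at five concentrations for 48 hours. Endpoints are linearly interpolated between the surrounding concentrations. Here, GI50 denotes the concentration required for 50% inhibition of growth.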 The source made the active and inactive calls. Cut-off read from the data, not from the text of the source: active = GI50 up to about 1.1 µM and inactive = higher.

How the values were obtained:
Experiment in all cases: DTP human tumour cell line panel, 48 h
[1] = tested on: NCI-H226
[2] = tested on: OVCAR-4
[3] = tested on: U-251
[4] = tested on: A498
[5] = tested on: OVCAR-3
[6] = tested on: K562
[7] = tested on: SF-268
[8] = tested on: CCRF-CEM
[9] = tested on: SW-620
[10] = tested on: UACC-257
[11] = tested on: DLD-1
[12] = tested on: SK-MEL-2
[13] = tested on: RPMI-8226
[14] = tested on: SR
[15] = tested on: Malme-3M
[16] = tested on: 786-0
[17] = tested on: HOP-92
[18] = tested on: SK-MEL-28
[19] = tested on: HCC 2998
[20] = tested on: SNB-78
[21] = tested on: NCI-H23
[22] = tested on: CAKI-1
[23] = tested on: HL-60
[24] = tested on: LOX IMVI
[25] = tested on: SN12C
[26] = tested on: HOP-18
[27] = tested on: SNB-75
[28] = tested on: HOP-62
[29] = tested on: UACC-62
[30] = tested on: OVCAR-5
[31] = tested on: A549
[32] = tested on: UO-31
[33] = tested on: SK-OV-3
[34] = tested on: SF-539
[35] = tested on: HT-29
[36] = tested on: IGROV-1
[37] = tested on: TK-10
[38] = tested on: COLO 205
[39] = tested on: MOLT-4
[40] = tested on: HCT-116
[41] = tested on: KM-20L2
[42] = tested on: M14
[43] = tested on: DMS-114
[44] = tested on: DMS-273
[45] = tested on: KM12
[46] = tested on: HCT-15
[47] = tested on: M19-MEL
[48] = tested on: SK-MEL-5
[49] = tested on: RXF 393
[50] = tested on: EKVX
[51] = tested on: ACHN
[52] = tested on: SF-295
[53] = tested on: NCI-H460
[54] = tested on: LXFL 529
[55] = tested on: OVCAR-8

Compound: Cc1cc2c(=O)n(-c3ccc(F)cc3)c(C)nc2c(C(=O)O)c1C
- GI50 [1]: > 100 µM (inactive)
- GI50 [2]: > 100 µM (inactive)
- GI50 [3]: > 100 µM (inactive)
- GI50 [4]: > 100 µM (inactive)
- GI50 [5]: > 100 µM (inactive)
- GI50 [6]: > 100 µM (inactive)
- GI50 [7]: > 100 µM (inactive)
- GI50 [8]: > 100 µM (inactive)
- GI50 [9]: > 100 µM (inactive)
- GI50 [10]: > 100 µM (inactive)
- GI50 [11]: > 100 µM (inactive)
- GI50 [12]: > 100 µM (inactive)
- GI50 [13]: > 100 µM (inactive)
- GI50 [14]: > 100 µM (inactive)
- GI50 [15]: > 100 µM (inactive)
- GI50 [16]: > 100 µM (inactive)
- GI50 [17]: > 100 µM (inactive)
- GI50 [18]: > 100 µM (inactive)
- GI50 [19]: > 100 µM (inactive)
- GI50 [20]: > 100 µM (inactive)
- GI50 [21]: > 100 µM (inactive)
- GI50 [22]: > 100 µM (inactive)
- GI50 [23]: > 100 µM (inactive)
- GI50 [24]: > 100 µM (inactive)
- GI50 [25]: > 100 µM (inactive)
- GI50 [26]: > 100 µM (inactive)
- GI50 [27]: > 100 µM (inactive)
- GI50 [28]: > 100 µM (inactive)
- GI50 [29]: > 100 µM (inactive)
- GI50 [30]: > 100 µM (inactive)
- GI50 [31]: > 100 µM (inactive)
- GI50 [32]: > 100 µM (inactive)
- GI50 [33]: > 100 µM (inactive)
- GI50 [34]: > 100 µM (inactive)
- GI50 [35]: > 100 µM (inactive)
- GI50 [36]: > 100 µM (inactive)
- GI50 [37]: > 100 µM (inactive)
- GI50 [38]: > 100 µM (inactive)
- GI50 [39]: > 100 µM (inactive)
- GI50 [40]: > 100 µM (inactive)
- GI50 [41]: > 100 µM (inactive)
- GI50 [42]: > 100 µM (inactive)
- GI50 [43]: > 100 µM (inactive)
- GI50 [44]: > 100 µM (inactive)
- GI50 [45]: > 100 µM (inactive)
- GI50 [46]: > 100 µM
- GI50 [47]: > 100 µM (inactive)
- GI50 [48]: > 100 µM (inactive)
- GI50 [49]: > 100 µM (inactive)
- GI50 [50]: > 100 µM (inactive)
- GI50 [51]: > 100 µM (inactive)
- GI50 [52]: > 100 µM (inactive)
- GI50 [53]: > 100 µM (inactive)
- GI50 [54]: > 100 µM (inactive)
- GI50 [55]: > 100 µM (inactive)
